Test results reported in patent US12060588B2, “Methods of editing DNA methylation” (Whitehead Institute for Biomedical Research, priority 2016, dated 2024).

Tested on: Snrpn promoter (IG-DMR GFP/Pat reporter)
Assay: Ex vivo activation of the silenced IG-DMR-Snrpn-GFP reporter in mouse tail fibroblasts
Format: cell-based
Text: FIGS. 7A-7H depict targeted ex vivo and in vivo DNA methylation editing by dCas9-Tet1 to activate a silenced GFP reporter. FIG. 7A provides a schematic diagram illustrating the experimental procedure for the ex vivo activation of a silenced GFP reporter in mouse fibroblast cells. Mouse tail fibroblast cells were derived from a genetically modified mouse line carrying a paternal IG-DMR-Snrpn-GFP allele (IG-DMRGFP/Pat) in the Dlk1-Dio3 locus. The IG-DMR-Snrpn promoter on the paternal allele is hypermethylated so that the GFP reporter is constitutively silenced. The cultured fibroblast cells were infected with lentiviral vectors expressing dCas9-Tet1 and gRNAs to demethylate the Snrpn promoter and activate the GFP reporter. Cells are subject to imaging and FACS analysis. […] Stained in red for Cherry, green for GFP and DAPI for nuclei. Scale bar: 100 um. Note that in order to turn on the Snrpn-GFP methylation reporter, both dCas9-Tet1 and target gRNA lentiviral vectors have to be transduced into the same cells. […] Brains were sliced and analyzed by immunohistochemical approaches. […] FIGS. 7G-7H provide quantification of the percentage of IG-DMR^GFP/Pat cells with GFP activation in Cherry (gRNAs) positive cells in the in vivo lentiviral delivery experiment in the brain (FIG. 7G) and in the skin epidemis (FIG. 7H). […]

| Substance | GFP reporter activation in Cherry (gRNA) positive fibroblasts (with Snrpn target gRNAs, lentiviral transduction) | GFP reporter activation in Cherry (gRNA) positive fibroblasts (with a sc gRNA) |
| --- | --- | --- |
| dC-dT: dCas9 fused to an inactive mutant form of Tet1 (H1672Y, D1674A), SEQ ID NO: 160 | cannot turn on GFP reporter expression |  |
| dCas9-Tet1: catalytically inactive Cas9 (dCas9) fused through NLS to the Tet1 catalytic domain, SEQ ID NO: 159; lentivirally expressed with gRNAs |  | cannot turn on GFP reporter expression |
